Test results published in ChEMBL document CHEMBL1156337, “Synthesis and evaluation of novel benzothiazole derivatives based on the bithiophene structure as potential radiotracers for beta-amyloid plaques in Alzheimer's disease” (Bioorg Med Chem, 2010).
Calls of active or inactive are those of the source. No cut-off for these calls is given here.

Experiments:
[1] = Binding affinity to amyloid beta (1 to 42) aggregates after 2 hrs by saturation binding method
[2] = Binding affinity to amyloid beta (1 to 40) aggregates after 2 hrs by saturation binding method
[3] = species: Mus musculus; assay: Binding affinity to beta amyloid plaques in brain sections of TgC57 transgenic mouse transfected with APP and PS1 double mutant after 10 mins using thioflavin-S stain; assay type: tissue-based
[4] = Displacement of [125I]TZDM from amyloid beta (1 to 40) aggregates after 2 hrs
[5] = Displacement of [125I]TZDM from amyloid beta (1 to 42) aggregates after 2 hrs

| Ki [1] [nM] | Ki [2] [nM] | Activity [3] | Ki [4] [nM] | Ki [5] [nM] | SMILES |
| --- | --- | --- | --- | --- | --- |
| 0.13 | 0.09 | – | – | – | CN(C)c1ccc(-c2nc3ccc([125I])cc3s2)cc1 |
| – | – | Active | 1.28 | 0.21 | COc1ccc2nc(-c3ccc(-c4ccc(Br)s4)s3)sc2c1 |
| – | – | Active | 3.94 | 4.64 | c1csc(-c2ccc(-c3nc4ccccc4s3)s2)c1 |
